One series can be described thus: Degraded rate of squarylium compound in photosensitive resin solution with iron(II) hexafluorophosphate complex (Example 8). It counts as physicochemical. The arrangement: key: degraded rate relative to that of Compound (A). To be noted: 40° C., 32 days, light-screened, ethyl cellosolve, relative to Compound (A). Here is the method: (§1) 0.5 g of pentaerythritol triacrylate, 0.5 g of butyl methacrylate/acrylic acid copolymer (weight-average molecular weight 3,100, copolymerization ratio 66/34), 60 mg of 2,4,6-tris(trichloromethyl)-s-triazine and 2 mg of a squarylium compound were dissolved in ethyl cellosolve to 25 ml to give a photosensitive resin solution. This solution was light-screened and allowed to stand at 40° C. for 3 days. The absorbance at the maximum absorption wavelength present in 600 to 700 nm was measured with a spectrophotometer before (A1) and after (A2) being allowed to stand. The degraded rate of the squarylium compound was obtained according to the following equation:
(§2) Degraded rate (%)=(A1-A2)/A1 ×100
0.5 g of pentaerythritol triacrylate, 60 mg of polymethyl methacrylate (manufactured by Aldrich; weight-average molecular weight 12,000), 90 mg of (.eta.^6 -benzene)(.eta.^5 cyclopentadienyl)iron(II) hexafluorophosphate and 2 mg of a squarylium compound were dissolved in ethyl cellosolve to 25 ml to give a photosensitive resin solution. Thereafter, the same procedures as those in Example 7 were repeated except that a time for being allowed to stand of 3 days was replaced with that of 32 days to give the degraded rate of the squarylium compound. The degraded rate of squarylium Compounds 1 to 9 are shown as a relative value based on the degraded rate of Compound (A) in Table 6.
For `CN1C(=CC2=C([O-])C(=CC3=[N+](C)c4ccc5ccccc5c4C3(C)C)C2=O)C(C)(C)c2c1ccc1ccccc21` [A, reference compound], the “Relative value of degraded rate” value is 1.0.

For `CCN1C(=CC2=C([O-])C(=CC3=[N+](CC)c4ccc5ccccc5c4C3(C)C)C2=O)C(C)(C)c2c1ccc1ccccc21` [Compound 1], the “Relative value of degraded rate” value is on record as 0.51.

Take `CCCN1C(=CC2=C([O-])C(=CC3=[N+](CCC)c4ccc5ccccc5c4C3(C)C)C2=O)C(C)(C)c2c1ccc1ccccc21` [Compound 2]: the “Relative value of degraded rate” value is reported as 0.48.

For `CC(C)N1C(=CC2=C([O-])C(=CC3=[N+](C(C)C)c4ccc5ccccc5c4C3(C)C)C2=O)C(C)(C)c2c1ccc1ccccc21` [Compound 3], the “Relative value of degraded rate” value was found to be 0.44.

With `CCCCN1C(=CC2=C([O-])C(=CC3=[N+](CCCC)c4ccc5ccccc5c4C3(C)C)C2=O)C(C)(C)c2c1ccc1ccccc21` [Compound 4], the “Relative value of degraded rate” value came to 0.60.

Test in another series: not given
As to conditions: in the dark, light screened; background statement; cited from earlier work.
For the molecule `CN1C(=CC2=C([O-])C(=CC3=[N+](C)c4ccc5ccccc5c4C3(C)C)C2=O)C(C)(C)c2c1ccc1ccccc21` [A, reference compound], the “degradation in photosensitizer solution” value was “easily degraded in the dark”.

Another series is described as follows: Degraded rate of squarylium compound in photosensitive resin solution with 2,4,6-tris(trichloromethyl)-s-triazine (Example 7). It counts as physicochemical. To be noted: 40° C., 3 days, light-screened, ethyl cellosolve, relative to Compound (A). As for the experimental part: as §1, §2
The degraded rates of squarylium Compounds 1 to 9 are shown as a relative value based on the degraded rate of Compound (A) in Table 5.
Consider `CN1C(=CC2=C([O-])C(=CC3=[N+](C)c4ccc5ccccc5c4C3(C)C)C2=O)C(C)(C)c2c1ccc1ccccc21` [A, reference compound], for which the “Relative value of degraded rate” value is reported as 1.0.

For `CCN1C(=CC2=C([O-])C(=CC3=[N+](CC)c4ccc5ccccc5c4C3(C)C)C2=O)C(C)(C)c2c1ccc1ccccc21` [Compound 1], the “Relative value of degraded rate” value amounted to 0.34.

`CCCN1C(=CC2=C([O-])C(=CC3=[N+](CCC)c4ccc5ccccc5c4C3(C)C)C2=O)C(C)(C)c2c1ccc1ccccc21` [Compound 2]: the “Relative value of degraded rate” value is recorded as 0.25.

For the molecule `CC(C)N1C(=CC2=C([O-])C(=CC3=[N+](C(C)C)c4ccc5ccccc5c4C3(C)C)C2=O)C(C)(C)c2c1ccc1ccccc21` [Compound 3], the “Relative value of degraded rate” value was 0.24.

For the molecule `CCCCN1C(=CC2=C([O-])C(=CC3=[N+](CCCC)c4ccc5ccccc5c4C3(C)C)C2=O)C(C)(C)c2c1ccc1ccccc21` [Compound 4], the “Relative value of degraded rate” value is recorded as 0.29.

The nature of a further series: Sensitivity of photosensitive layer with 3,3',4,4'-tetrakis(tert-butyldioxycarbonyl)benzophenone (Example 11). As to conditions: 630 nm. The source says: (§3) 100 parts of pentaerythritol triacrylate, 100 parts of polymethacrylate polymer [synthesized according to the methods described in Jikkenkagakukoza, Maruzen K. K., 4th edition, volume 28, page 121, 1992; Kobunshigosei no Jikkenho (Experimental method for polymer synthesis), Kagakudojin K. K., coauthored by Takayuki Otsu and Masaetsu Kinoshita, page 138, 1972; average molecular weight 150,000; methyl ester/isobutyl ester/cyclohexyl ester/free carboxylic acid=27/36/25/12], 7.9 parts of 2,4,6-tris(trichloromethyl)-s-triazine and 1 part of a squarylium compound were dissolved in 1900 parts of ethyl cellosolve to give a photosensitive resin solution. This photosensitive solution was spin-coated on an aluminium plate treated with grinding and anodic oxidation, at 1000 rpm so that the dry-state thickness became 2 μm. On this, a 10% aqueous polyvinyl alcohol (Kurarey Poval 706) solution was spin-coated at 1500 rpm so that the dry-state thickness became 1 μm to give a over-coat layer. A step tablet was piled closely on the resulting photosensitive layer, and the rays having the wavelength around 630, 650 or 680 nm were irradiated from 3kw ultra-high pressure mercury lamp through a glass filter. The rays having the wavelength around 630 nm (155 μJ/cm^2 ·s) were obtained by passing the rays from the above mercury lamp through a colored glass filter R-61, an interference filter KL-63 (both were manufactured by Toshiba Glass Co., Ltd.) and a heat rays absorbing filter HA-30 (manufactured by HOYA Corporation), the rays having the wavelength around 650 nm (177 μJ/cm^2 ·s) were obtained by passing the rays from the above mercury lamp through a colored glass filter R-63, an interference filter KL-65 (both were manufactured by Toshiba Glass Co., Ltd.) and HA-30 and the rays having the wavelength around 680 nm (88 μJ/cm^2 ·s) were obtained by passing the rays from the above mercury lamp through a glass filter R-66, an interference filter KL-68 (both were manufactured by Toshiba Glass Co., Ltd.) and HA-30. Then, the development was carried out with a PS plate developer DN3C (manufactured by Fujiphoto Film Co., Ltd.) diluted 1.5-folds with distilled water, an ink was attached thereon with a PS plate developing ink PI-2 (manufactured by Fujiphoto Film Co., Ltd.) and the sensitivity was scored by obtaining an energy amount necessary for hardening from hardening step number with an ink attached thereto.
The sensitivity when the rays having the wavelength around 630 nm were irradiated was obtained by repeating the same procedures as those of Example 9 except that 8 parts of 3,3',4,4'-tetrakis(tert-butyldioxycarbonyl)benzophenone was used in place of 7.9 parts of 2,4,6-tris(tichloromethyl)-s-triazine.
`CN1C(=CC2=C([O-])C(=CC3=[N+](C)c4ccc5ccccc5c4C3(C)C)C2=O)C(C)(C)c2c1ccc1ccccc21` [A, reference compound] had a Sensitivity of 0.43 mJ/cm^2.

On to `CC(C)N1C(=CC2=C([O-])C(=CC3=[N+](C(C)C)c4ccc5ccccc5c4C3(C)C)C2=O)C(C)(C)c2c1ccc1ccccc21` [Compound 3], for which the Sensitivity is listed as 0.083 mJ/cm^2.

Test in another series: not given
As to conditions: disclosed in JP-A 63-138345, JP-A 63-142346, JP-A 2-48665; cited from earlier work.
For the molecule `CN1C(=CC2=C([O-])C(=CC3=[N+](C)c4ccc5ccccc5c4C3(C)C)C2=O)C(C)(C)c2c1ccc1ccccc21` [A, reference compound], the maximum absorption wavelength is 673 nm.

The nature of a further series: Sensitivity of photosensitive layer with 2,4,6-tris(trichloromethyl)-s-triazine (Example 9). As to conditions: 630 nm; energy necessary for hardening; s-triazine radical generator.
Text: as §3
As for `CN1C(=CC2=C([O-])C(=CC3=[N+](C)c4ccc5ccccc5c4C3(C)C)C2=O)C(C)(C)c2c1ccc1ccccc21` [A, reference compound], the Sensitivity is listed as 0.91 mJ/cm^2.

For `CCN1C(=CC2=C([O-])C(=CC3=[N+](CC)c4ccc5ccccc5c4C3(C)C)C2=O)C(C)(C)c2c1ccc1ccccc21` [Compound 1], the Sensitivity was found to be 0.47 mJ/cm^2.

For `CCCN1C(=CC2=C([O-])C(=CC3=[N+](CCC)c4ccc5ccccc5c4C3(C)C)C2=O)C(C)(C)c2c1ccc1ccccc21` [Compound 2], the Sensitivity was found to be 0.47 mJ/cm^2.

With `CC(C)N1C(=CC2=C([O-])C(=CC3=[N+](C(C)C)c4ccc5ccccc5c4C3(C)C)C2=O)C(C)(C)c2c1ccc1ccccc21` [Compound 3], the Sensitivity was determined as 0.39 mJ/cm^2.

`CCCCN1C(=CC2=C([O-])C(=CC3=[N+](CCCC)c4ccc5ccccc5c4C3(C)C)C2=O)C(C)(C)c2c1ccc1ccccc21` [Compound 4] came in with a Sensitivity of 0.39 mJ/cm^2.

Staying with this series, now noted: 650 nm; energy necessary for hardening; s-triazine radical generator.
As for `CN1C(=CC2=C([O-])C(=CC3=[N+](C)c4ccc5ccccc5c4C3(C)C)C2=O)C(C)(C)c2c1ccc1ccccc21` [A, reference compound], the Sensitivity was determined as 0.56 mJ/cm^2.

With `CCN1C(=CC2=C([O-])C(=CC3=[N+](CC)c4ccc5ccccc5c4C3(C)C)C2=O)C(C)(C)c2c1ccc1ccccc21` [Compound 1], the Sensitivity was 0.40 mJ/cm^2.

Consider `CCCN1C(=CC2=C([O-])C(=CC3=[N+](CCC)c4ccc5ccccc5c4C3(C)C)C2=O)C(C)(C)c2c1ccc1ccccc21` [Compound 2], for which the Sensitivity stood at 0.40 mJ/cm^2.

As to `CC(C)N1C(=CC2=C([O-])C(=CC3=[N+](C(C)C)c4ccc5ccccc5c4C3(C)C)C2=O)C(C)(C)c2c1ccc1ccccc21` [Compound 3], the Sensitivity turned out to be 0.40 mJ/cm^2.

`CCCCN1C(=CC2=C([O-])C(=CC3=[N+](CCCC)c4ccc5ccccc5c4C3(C)C)C2=O)C(C)(C)c2c1ccc1ccccc21` [Compound 4]: the Sensitivity is listed as 0.40 mJ/cm^2.

Staying with this series, now noted: 680 nm; energy necessary for hardening; s-triazine radical generator.
The molecule `CN1C(=CC2=C([O-])C(=CC3=[N+](C)c4ccc5ccccc5c4C3(C)C)C2=O)C(C)(C)c2c1ccc1ccccc21` [A, reference compound] registered a Sensitivity of 0.65 mJ/cm^2.

Turning to `CCN1C(=CC2=C([O-])C(=CC3=[N+](CC)c4ccc5ccccc5c4C3(C)C)C2=O)C(C)(C)c2c1ccc1ccccc21` [Compound 1], the Sensitivity turned out to be 0.37 mJ/cm^2.

In turn, `CCCN1C(=CC2=C([O-])C(=CC3=[N+](CCC)c4ccc5ccccc5c4C3(C)C)C2=O)C(C)(C)c2c1ccc1ccccc21` [Compound 2] showed a Sensitivity of 0.37 mJ/cm^2.

Consider `CC(C)N1C(=CC2=C([O-])C(=CC3=[N+](C(C)C)c4ccc5ccccc5c4C3(C)C)C2=O)C(C)(C)c2c1ccc1ccccc21` [Compound 3], for which the Sensitivity came to 0.26 mJ/cm^2.

`CCCCN1C(=CC2=C([O-])C(=CC3=[N+](CCCC)c4ccc5ccccc5c4C3(C)C)C2=O)C(C)(C)c2c1ccc1ccccc21` [Compound 4] registered a Sensitivity of 0.37 mJ/cm^2.

A further series in a line: Optical absorption property in chloroform. The series is classed as physicochemical. To be noted: solvent chloroform.
Turning to `CCCN1C(=CC2=C([O-])C(=CC3=[N+](CCC)c4ccc5ccccc5c4C3(C)C)C2=O)C(C)(C)c2c1ccc1ccccc21` [Compound 2], the logε was 5.5 and the λ max turned out to be 667 nm.

`CC(C)N1C(=CC2=C([O-])C(=CC3=[N+](C(C)C)c4ccc5ccccc5c4C3(C)C)C2=O)C(C)(C)c2c1ccc1ccccc21` [Compound 3]: the logε worked out at 5.5 and the λ max worked out at 666 nm.

A short description of another series: Sensitivity of photosensitive layer with iron(II) hexafluorophosphate complex and CARBOSET XL-44 (Example 10). As to conditions: 630 nm; iron(II) hexafluorophosphate complex, CARBOSET XL-44.
Text: as §3
The sensitivity when the rays having the wavelength around 630 nm were irradiated was obtained by repeating the same procedures as those in Example 9 except that 8 parts of (.eta.^6 -benzene) (.eta.^5 -cyclopentadienyl)iron(II) hexafluorophosphate was used in place of 7.9 parts of 2,4,6-tris(trichloromethyl)-s-triazine and CARBOSET,XL-44 (manufactured by BF Goodrich) was used in place of polymethacrylate polymer (methyl ester/isobutyl ester/cyclohexyl ester/free carboxylic acid=27/36/25/12).
Molecule `CN1C(=CC2=C([O-])C(=CC3=[N+](C)c4ccc5ccccc5c4C3(C)C)C2=O)C(C)(C)c2c1ccc1ccccc21` [A, reference compound] displayed a Sensitivity of 11 mJ/cm^2.

Test in a further series: not given
As to conditions: background statement; cited from earlier work.
As to `CN1C(=CC2=C([O-])C(=CC3=[N+](C)c4ccc5ccccc5c4C3(C)C)C2=O)C(C)(C)c2c1ccc1ccccc21` [A, reference compound], the “solubility in an organic solvent or a monomer” value is reported as “low solubility”.

The values above are taken from patent publication US5681685A, “Photopolymerizable composition containing squarylium compound” (Kyowa Hakko Kogyo Co., Ltd., priority 1994, dated 1997).
